The values below come from publication PMC8776337, “Peptides Derived from Vascular Endothelial Growth Factor B Show Potent Binding to Neuropilin‐1” (Chembiochem, 2021).

Read-outs that look alike come from different tables or passages of the source. Positions of bridges follow the written chain, without caps; N, C: chain ends. Residues, ends and D or L forms follow the SMILES beside them. *: point of attachment. Palmitoyl = CCCCCCCCCCCCCCCC(=O)*; Hept6ynoyl = C#CCCCCC(=O)*

As usually defined, the Kd is a measure of binding affinity in units of concentration. For orientation: IC50 means the concentration at which inhibition is half-maximal.

For one test, the target named is T1, NRP1‐b1 (Homo sapiens, UniProt O14786).
T1 construct: the immobilized b1 domain of NRP1 (NRP1‐b1); poly-histidine (TEV-cleavable) (cleaved yes); made in house; host or cells: E. coli Rosetta (DE3)
T1 sequence (O14786 275-424 limits assumed): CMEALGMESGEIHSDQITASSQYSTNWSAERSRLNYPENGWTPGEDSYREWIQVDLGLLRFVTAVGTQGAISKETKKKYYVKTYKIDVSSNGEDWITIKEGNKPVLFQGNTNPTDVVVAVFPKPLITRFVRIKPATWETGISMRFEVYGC
Description: SPR binding of peptides to immobilised NRP1-b1. Conditions: for Receptor occupancy: immobilised NRP1-b1. The source says: We then designed four additional peptides with added lipid chains (Figures 3 and 4). We investigated the effect of lipidation on the N‐terminus (MGC0171 and MGC0174) and on the side chain of a lysine in close proximity to the C‐terminus (MGC0172 and MGC0173) as shown (Figure 5). For the SPR analysis of the lipidated peptides we fitted data to a two‐state reaction model to account for the nonspecific binding of the palmitoyl side chains. Since the model assumes two binding events it provides two association (k a) and dissociation (k d) rates, and the overall equilibrium dissociation constant is calculated using the equation: KD=KD1(1+KD2), in which KD1 and KD2 are obtained as […]. The inverse of the dissociation rate corresponds to the residence time. […] The lipidated peptides were also tested for inhibition of VEGF‐A165 binding to NRP1 in a cell‐based assay (Figure 8).
Surface plasmon resonance: SPR measurements were performed using either Biacore T200 or Biacore 4000 at a constant temperature of 25 °C. All sensor chips, stock buffers, and immobilisation reagents were purchased from GE Healthcare/Cytvia and were prepared according to the manufacturer's instructions.
Chip preparation: PBS containing 0.05 % surfactant P20 was used as the running buffer during immobilisation. Proteins were immobilised onto a CM5 chip using random amine coupling following a standard procedure using the conditions specified in Table 2. A flow cell upstream of the treated flow cell was used as a reference which allowed removal of non‐specific binding to the chip.
Kinetic measurements of peptides: Peptides were injected over immobilized NRP1‐b1 for 60 s, followed by 120 or 180 s dissociation. The surface was regenerated with 1 M NaCl between injections. The SPR response curves were fit to a binding model to obtain association (ka ) and dissociation (kd ) rates which were then converted into equilibrium dissociation constant (KD ) and residence time. For a 1 : 1 binding model […] and for a two‐state binding model KD=K1(1+K2). Residence time was calculated as 1/kd .
On the technique in general: In SPR one partner is held on a chip, and binding of the other changes the refractive index at the surface.

Test [1] has as its system VEGF‐A165 stimulated phosphorylation in HUVECs. Description: Western blot of VEGF-A-stimulated phosphorylation of downstream signalling proteins in HUVECs. Type of test: cell-based, human. Conditions: HUVECs pre-treated 30 min with 10 μM peptide, then VEGF-A165 10 min. The protocol:
Figure 7 Effect of VEGF ‐ derived peptides on VEGF‐A ‐stimulated phosphorylation of downstream signalling proteins as probed by Western blot. A) VEGF‐B167 derived peptide MGC0123. B) VEGF‐A165 derived peptide MGC0124. HUVECs were pre‐treated for 30 min with peptide (10 μM) then stimulated for 10 minutes with VEGF‐A165.
Cell culture: Human umbilical vein endothelial cells (HUVECs) were cultured in t75 cm2 flasks for a maximum of 2 passages in EGM Endothelial Cell Growth Medium (#CC‐3124, Lonza, USA) supplemented with 10 % FBS. Cells were split into 6‐well‐plates and allowed to grow to ∼80 % confluence. Cells were starved by incubating in 0.5 % FBS serum EGM overnight and serum‐free EGM for 1 h directly before stimulation. Human DU145 cells for the cell‐based assay (see below) were cultured in t75 cm2 flasks in DMEM supplemented with 10 % FBS.
Immunoblotting: Cells were pre‐treated with the indicated peptide (10 μM) for 30 minutes prior to treatment with VEGF‐A165 at the indicated concentrations for 10 minutes. Cells were lysed in a solution containing Tris⋅HCl (pH 7.5, 50 mm), Triton X‐100 (1 %), NaCl (150 mm), EDTA (5 mm), complete protease inhibitor (Roche) and phosphatase inhibitors I and II (Sigma) and analysed by SDS‐PAGE with 4–12 % Bis⋅Tris gels (Nupage, Invitrogen), followed by electrotransfer onto Invitrolon PVDF membranes (Invitrogen). Membranes were blocked with non‐fat dry milk (5 % w/v) and Tween‐20 (0.1 % v/v) in tris‐buffered saline (TBS‐T), for 1 h at room temperature, before being probed with the primary antibody by overnight incubation at 4 degrees C, followed by incubation for 1 h at room temperature with a horseradish‐ peroxidase‐linked secondary antibody (Santa Cruz) and detection with the aid of ECL plus reagents (GE Healthcare, Little Chalfont, UK), by the manufacturer's protocol.
A general note: Immunoblotting shows a protein as a band on a membrane.

Test [2] addresses T2, bt‐VEGF‐A165 binding to NRP1 in HUVEC cells (Homo sapiens, UniProt O14786).
T2 construct: expressed in transfected cells
The experiment in a line: Cell based binding assay, inhibition of bt-VEGF-A165 binding to NRP1. Conditions: bt-VEGF-A165 4 nM. The method, then:
A) N‐terminal palmitoyl VEGF‐B167 derived peptide MGC0174. B) Lysine palmitoyl peptide MGC0173. C) N‐terminal palmitoyl VEGF‐A165 derived peptide MGC0171. D) Lysine VEGF‐A165 palmitoyl peptide MGC0172.
Cell based binding assay for bt‐VEGF binding to NRP1‐b1: A flat‐bottomed 96 well plate was coated with 100 μL 10 μg/mL Poly‐D‐lysine (110 μL in 10890 μL PBS) and incubated for 1 hour at R.T. DU145 cells were seeded at a concentration of 20,000 DU145 cells/well in DMEM with 10 % FBS and incubated for 4 hours. Cells were then infected with 0.3 μL per well of adenovirus expressing NRP1 (stock at 1×1012 vp/mL) and incubated for 40 hours. The media was removed followed by washing cells twice in 200 μL of PBS per well. The plate was placed on ice and 50 μL of binding medium was added per well for total binding. Next, 50 μL of 100‐fold excess (100×btVEGF‐A165) of unlabelled‐VEGF (diluted in binding medium) was added per well for non‐specific binding. Peptides (50 μL) at the indicated concentrations were diluted in binding medium and added to specified wells. bt‐VEGF (50 μL of 4 nM; diluted in binding medium) was added per well for both total and non‐specific binding and samples. The plate was incubated at 4 °C for 2 hours. The plate was then placed on ice and the medium was removed followed by gently washing the cells 3 times in 200 μL of PBS per well.
Streptavidin‐horseradish peroxidase (100 μL; dilute to the working concentration specified on the vial label using PBS+1 % BSA=1 : 200) was added to each well. The plate was sealed and incubated for 30 minutes at room temperature. Three more washes with 200 μL PBS were done. Then, 100 μL of substrate solution was added to each well (protected from light). Colour Reagent A and B were mixed together in equal volumes within 15 minutes of use. The plate was sealed and incubated for 20 minutes at room temperature. Stop solution (50 μL) was added to each well ensuring even mixing. The plate was read using Tecan Genios plate reader using a 450 nm cut‐off filter and also with a reference 595 nm cut‐off filter. Nonspecific binding was determined in the absence of NP‐1 coated on the microplate.

Where [3] appears, read: SPR, immobilised NRP1-b1, 25 °C, 1:1 model, or first residence time of the two-state model, read-out: Residence time (1/kd) (converted).

T2 sequence (O14786 22-923): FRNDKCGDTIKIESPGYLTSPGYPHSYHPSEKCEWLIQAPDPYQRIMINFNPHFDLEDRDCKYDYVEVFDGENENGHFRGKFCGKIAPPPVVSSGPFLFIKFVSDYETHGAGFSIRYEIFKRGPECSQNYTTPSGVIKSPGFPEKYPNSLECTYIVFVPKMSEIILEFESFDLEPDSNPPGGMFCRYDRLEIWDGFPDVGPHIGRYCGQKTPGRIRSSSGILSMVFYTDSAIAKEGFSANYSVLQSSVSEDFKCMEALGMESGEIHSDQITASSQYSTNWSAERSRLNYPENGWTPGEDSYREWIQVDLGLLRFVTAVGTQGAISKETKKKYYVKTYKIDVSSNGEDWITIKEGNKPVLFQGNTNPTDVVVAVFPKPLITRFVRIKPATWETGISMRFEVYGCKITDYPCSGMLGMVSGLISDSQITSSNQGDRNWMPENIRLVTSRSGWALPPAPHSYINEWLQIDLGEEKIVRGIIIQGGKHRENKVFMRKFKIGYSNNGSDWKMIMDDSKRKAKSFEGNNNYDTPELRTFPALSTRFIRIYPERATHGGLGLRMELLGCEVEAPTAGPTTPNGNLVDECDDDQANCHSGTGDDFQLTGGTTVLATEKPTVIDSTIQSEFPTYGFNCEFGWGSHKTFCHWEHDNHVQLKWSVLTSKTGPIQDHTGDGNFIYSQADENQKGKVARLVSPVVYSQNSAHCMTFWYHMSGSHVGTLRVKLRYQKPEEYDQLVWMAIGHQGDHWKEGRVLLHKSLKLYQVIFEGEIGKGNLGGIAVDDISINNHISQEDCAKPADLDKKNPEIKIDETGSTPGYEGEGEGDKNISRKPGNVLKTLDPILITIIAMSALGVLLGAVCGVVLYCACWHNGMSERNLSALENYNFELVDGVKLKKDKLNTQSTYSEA

In the case of `C#CCCCCC(=O)N[C@@H](CC(=O)O)C(=O)N[C@@H](CCCNC(=N)N)C(=O)N[C@@H](C)C(=O)N[C@@H](C)C(=O)N[C@H](C(=O)N1CCC[C@H]1C(=O)N[C@@H](Cc1c[nH]cn1)C(=O)N[C@@H](Cc1c[nH]cn1)C(=O)N[C@@H](CCCNC(=N)N)C(=O)N1CCC[C@H]1C(=O)N[C@@H](CCC(N)=O)C(=O)N1CCC[C@H]1C(=O)N[C@@H](CCCNC(=N)N)C(=O)O)[C@@H](C)O` [MGC0122] (Hept6ynoyl-DRAATPHHRPQPR-OH), the residence time on NRP1‐b1 (setting [3]) is 0.0362 min.

With `C#CCCCCC(=O)N[C@@H](CCCNC(=N)N)C(=O)N[C@H]1CSSC[C@@H]2NC(=O)[C@H]([C@@H](C)O)NC(=O)[C@H](CC(=O)O)NC(=O)[C@@H]3CCCN3C(=O)[C@H](CC(N)=O)NC(=O)[C@H](CC(C)C)NC(=O)[C@H](CCC(=O)O)NC(=O)[C@H](CC(C)C)NC(=O)CNC(=O)[C@H](CCCNC(=N)N)NC(=O)CNC(=O)[C@H](CCC(N)=O)NC(=O)[C@H](CSSC[C@@H](C(=O)N[C@@H](CCCNC(=N)N)C(=O)N[C@@H](CCCCN)C(=O)N[C@@H](CC(C)C)C(=O)N[C@@H](CCCNC(=N)N)C(=O)N[C@@H](CCCNC(=N)N)C(=O)O)NC(=O)[C@H](CCCNC(=N)N)NC2=O)NC(=O)[C@H](CCCNC(=N)N)NC(=O)[C@H](CC(C)C)NC(=O)[C@H](Cc2ccccc2)NC(=O)[C@H](CO)NC(=O)[C@H](CCCNC(=N)N)NC(=O)[C@H](CCCNC(=N)N)NC(=O)[C@H](CCCNC(=N)N)NC1=O` [MGC0123] (Hept6ynoyl-RCRRRSFLRCQGRGLELNPDTCRCRKLRR-OH; disulfide 2-22, 10-24), the Receptor occupancy on NRP1‐b1 (SPR) is 54±3%. At NRP1‐b1 (read-out: Residence time (1/kd)), the residence time was 0.308 min. In test [1], the “VEGF‐A165 dependent ERK phosphorylation” value is “dramatically inhibited”, the “VEGF‐A165 dependent VEGFR2 phosphorylation” value is reported as “dramatically inhibited”, the “VEGF‐A mediated P130Cas phosphorylation” value was “also inhibited” and the “VEGF‐A mediated Paxillin phosphorylation” value is “also inhibited”.

The molecule `C#CCCCCC(=O)N[C@@H](CO)C(=O)N[C@H]1CSSC[C@@H]2NC(=O)[C@H]([C@@H](C)O)NC(=O)[C@H](CCCNC(=N)N)NC(=O)[C@H](CCC(=O)O)NC(=O)[C@H](CC(N)=O)NC(=O)[C@H](CC(C)C)NC(=O)[C@H](CCC(=O)O)NC(=O)[C@H](CC(C)C)NC(=O)[C@H](CCC(N)=O)NC(=O)[C@H](CCCNC(=N)N)NC(=O)[C@H](C)NC(=O)[C@H](CCCCN)NC(=O)[C@H](CSSC[C@@H](C(=O)N[C@@H](CC(=O)O)C(=O)N[C@@H](CCCCN)C(=O)N3CCC[C@H]3C(=O)N[C@@H](CCCNC(=N)N)C(=O)N[C@@H](CCCNC(=N)N)C(=O)O)NC(=O)[C@H](CCCNC(=N)N)NC2=O)NC(=O)[C@H](CCCNC(=N)N)NC(=O)[C@H](CO)NC(=O)[C@H](CC(=O)O)NC(=O)[C@H]([C@@H](C)O)NC(=O)[C@H](CC(N)=O)NC(=O)[C@H](CCCCN)NC1=O` [MGC0124] (Hept6ynoyl-SCKNTDSRCKARQLELNERTCRCDKPRR-OH; disulfide 2-21, 9-23) displayed a Receptor occupancy on NRP1‐b1 (SPR) of 84±1%. In addition, at NRP1‐b1 (setting [3]), the residence time was 0.0117 min. For the same molecule, in test [1], the “VEGF‐A165 dependent ERK phosphorylation” value is “little effect”, the “VEGF‐A165 dependent VEGFR2 phosphorylation” value is recorded as “strongly reducing”, the “VEGF‐A mediated P130Cas phosphorylation” value is on record as “little effect” and the “VEGF‐A mediated Paxillin phosphorylation” value is “little effect”.

With `CCCCCCCCCCCCCCCC(=O)N[C@@H](CO)C(=O)N[C@H]1CSSC[C@@H]2NC(=O)[C@H]([C@@H](C)O)NC(=O)[C@H](CCCNC(=N)N)NC(=O)[C@H](CCC(=O)O)NC(=O)[C@H](CC(N)=O)NC(=O)[C@H](CC(C)C)NC(=O)[C@H](CCC(=O)O)NC(=O)[C@H](CC(C)C)NC(=O)[C@H](CCC(N)=O)NC(=O)[C@H](CCCNC(=N)N)NC(=O)[C@H](C)NC(=O)[C@H](CCCCN)NC(=O)[C@H](CSSC[C@@H](C(=O)N[C@@H](CC(=O)O)C(=O)N[C@@H](CCCCN)C(=O)N3CCC[C@H]3C(=O)N[C@@H](CCCNC(=N)N)C(=O)N[C@@H](CCCNC(=N)N)C(=O)O)NC(=O)[C@H](CCCNC(=N)N)NC2=O)NC(=O)[C@H](CCCNC(=N)N)NC(=O)[C@H](CO)NC(=O)[C@H](CC(=O)O)NC(=O)[C@H]([C@@H](C)O)NC(=O)[C@H](CC(N)=O)NC(=O)[C@H](CCCCN)NC1=O` [MGC0171] (Palmitoyl-SCKNTDSRCKARQLELNERTCRCDKPRR-OH; disulfide 2-21, 9-23), the residence time at NRP1‐b1 (setting [3]) was 0.0883 min; at NRP1‐b1 (SPR, immobilised NRP1-b1, 25 °C, two-state model, lipidated peptides, read-out: Second residence time calculated from two‐state model (converted)), 1.58 min. Besides, the Kd at NRP1‐b1 (SPR, peptide injected 60 s over NRP1-b1 immobilised on CM5 chip, 25 °C, 1:1 model for MGC0122/0123/0124, two-state model for lipidated peptides, read-out: KD, SPR binding to NRP1‐b1) was 3320 ± 160 nM. Moreover, the IC50 in test [2] (4 °C, 2 h, streptavidin-horseradish peroxidase detection, read-out: IC50, cell‐based activity (HUVECs), inhibition of bt‐VEGF‐A165 binding to NRP1) was determined as 1700 nM. Further, in test [2] (HUVEC cells), the “HS (of the inhibition curve of bt‐VEGF‐A165 binding to NRP1)” value turned out to be 1.7.
